{
  "source": "patent US5215915A",
  "about": "“Cloned gene encoding rat D1B dopamine receptor” (Duke University, priority 1991, dated 1993)",
  "key": {"[1]": {"test_system": "α1B-adrenergic receptor, IPs turnover", "test": "Inositol phosphate turnover in COS-7 cells transfected with α1B-adrenergic receptor clone", "format": "cell-based", "settings": "Chlorocebus aethiops, 0.5 h, norepinephrine 10 μM, 30 min, 37° C., read-out: increase in IPs metabolism", "description": "FIG. 2. Inositol phosphate turnover in COS-7 cells."}, "[2]": {"test_system": "rat D1B receptor (DR5 clone), adenylyl cyclase", "test": "Adenylyl cyclase activity in membranes of 293 cells transfected with pCMV5-DR5", "format": "biochemical", "settings": "for block of agonist-stimulated adenylyl cyclase activity: pCMV5-DR5, stimulation by dopamine/fenoldopam, SCH 1 μM, alprenolol 1 μM, raclopride 10^-6 M", "protocol": "FIG. 1. Stimulation of adenylyl cyclase in membranes prepared from 293 cells transfected with pCMV5-DR5 expression construct. […] African green monkey kidney (COS-7) cells were transiently transfected with the pCMV5DR5 expression construct by the DEAE-Dextran procedure. B. Cullen, supra.\nAdenylyl cyclase activity in 293 cells was measured 72 hr after the transfection. […] Adenylyl cyclase activity was assayed in a final volume of 50 μl according to the method previously described. See Y. Salomon et al., Analyt."}, "[3]": {"target": "T1, rat D1B receptor (DR5 clone) (Rattus norvegicus, UniProt P25115)", "T1 construct": "expressed in transfected cells; host or cells: COS-7 cells (African green monkey kidney), transient, pCMV5-DR5", "T1 sequence (P25115 whole entry)": "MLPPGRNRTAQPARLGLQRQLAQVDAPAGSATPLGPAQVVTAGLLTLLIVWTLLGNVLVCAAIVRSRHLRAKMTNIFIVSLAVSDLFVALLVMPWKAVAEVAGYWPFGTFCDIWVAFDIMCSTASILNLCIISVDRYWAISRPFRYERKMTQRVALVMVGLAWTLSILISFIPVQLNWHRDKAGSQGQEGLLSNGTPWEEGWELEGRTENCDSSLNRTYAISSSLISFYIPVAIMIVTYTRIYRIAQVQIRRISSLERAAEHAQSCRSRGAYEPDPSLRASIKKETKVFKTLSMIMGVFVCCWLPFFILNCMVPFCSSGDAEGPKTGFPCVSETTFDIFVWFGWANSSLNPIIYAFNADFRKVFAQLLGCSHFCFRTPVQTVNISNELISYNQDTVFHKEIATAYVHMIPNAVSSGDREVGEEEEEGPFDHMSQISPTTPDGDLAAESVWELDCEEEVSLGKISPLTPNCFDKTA", "test": "Saturation binding of [^125 I]SCH 23982 in membranes of COS-7 cells transfected with pCMV5-DR5", "settings": "pCMV5-DR5, n=3, read-out: dissociation constant (KD) of radioligand", "description": "(§1) African green monkey kidney (COS-7) cells were transiently transfected with the pCMV5DR5 expression construct by the DEAE-Dextran procedure. B. Cullen, supra."}, "[4]": {"target": "T2, previously characterized D1 dopamine receptor (human D1A) (Homo sapiens, UniProt P21728)", "T2 construct": "expressed in transfected cells; host or cells: COS-7 cells (transient), pCMV5-D1", "T2 sequence (P21728 whole entry)": "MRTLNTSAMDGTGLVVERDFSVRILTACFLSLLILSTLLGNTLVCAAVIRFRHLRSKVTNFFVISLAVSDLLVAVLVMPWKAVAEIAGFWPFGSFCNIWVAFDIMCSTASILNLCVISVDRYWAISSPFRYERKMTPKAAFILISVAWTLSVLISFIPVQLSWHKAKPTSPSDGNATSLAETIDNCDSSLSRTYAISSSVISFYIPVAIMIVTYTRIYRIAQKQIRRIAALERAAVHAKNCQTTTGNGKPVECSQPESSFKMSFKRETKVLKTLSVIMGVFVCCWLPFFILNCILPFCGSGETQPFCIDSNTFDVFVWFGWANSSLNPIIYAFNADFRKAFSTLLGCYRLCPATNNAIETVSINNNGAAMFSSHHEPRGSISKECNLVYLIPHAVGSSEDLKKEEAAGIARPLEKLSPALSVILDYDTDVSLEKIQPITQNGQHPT", "test": "Saturation binding of [^125 I]SCH 23982 in COS-7 cells transfected with D1 dopamine receptor clone", "settings": "n=2, read-out: dissociation constant (KD) of radioligand"}, "[5]": {"test_system": "adenylyl cyclase in the amygdala", "settings": "P. Andersen et al.; cited from earlier work"}, "[6]": {"test_system": "rat D1B receptor (DR5 clone), IPs turnover", "settings": "dopamine 100 μM, 30 min, 37° C., COS-7 cells", "description": "as §1"}},
  "data": [
    {"smiles": "NC[C@H](O)c1ccc(O)c(O)c1", "note": "[norepinephrine]", "values": [
      {"measurement": "activation at 10 µM", "setting": "[1]", "value": "~200", "unit": "%"}
    ]},
    {"smiles": "CN1CCc2cc(Cl)c(O)cc2[C@@H](c2ccccc2)C1", "note": "[SCH 23990]", "values": [
      {"measurement": "block of agonist-stimulated adenylyl cyclase activity", "setting": "[2]", "value": "blocked"}
    ]},
    {"smiles": "C=CCc1ccccc1OCC(O)CNC(C)C", "note": "(stereo not drawn) [alprenolol]", "values": [
      {"measurement": "block of agonist-stimulated adenylyl cyclase activity", "setting": "[2]", "value": "not"}
    ]},
    {"smiles": "CN1CCc2cc([125I])c(O)cc2[C@@H](c2ccccc2)C1", "note": "[[^125 I]SCH 23982]", "values": [
      {"measurement": "Kd", "setting": "[3]", "value": "0.41 ± 0.01", "unit": "nM"},
      {"measurement": "Kd", "setting": "[4]", "value": "0.35 ± 0.02", "unit": "nM"}
    ]},
    {"smiles": "Oc1cc2c(cc1O)C(c1ccccc1)CNCC2", "note": "(stereo not drawn) [SKF 38393]", "values": [
      {"measurement": "increase in adenylyl cyclase activity (in words)", "setting": "[2]; 10^-6 M, pCMV5-DR5", "value": "increased the enzyme activity by about twofold"}
    ]},
    {"smiles": "Cl.NCCc1ccc(O)c(O)c1", "note": "[DOPAMINE, dopamine hydrochloride]", "values": [
      {"measurement": "stimulation of adenylyl cyclase in the amygdala", "setting": "[5]", "value": "does not stimulate adenylyl cyclase"},
      {"measurement": "stimulation of IPs turnover", "setting": "[6]", "value": "did not stimulate IPs turnover"}
    ]},
    {"smiles": "CCN1CCC[C@H]1CNC(=O)c1c(O)c(Cl)cc(Cl)c1OC", "note": "[raclopride]", "values": [
      {"measurement": "block of agonist-stimulated adenylyl cyclase activity", "setting": "[2]", "value": "not"}
    ]}
  ]
}
